{"source": "patent US12622898B2", "about": "“Methods and compositions for improving bone marrow hematopoietic functions” (SUN YAT-SEN UNIVERSITY, priority 2019, dated 2026)", "tested_on": "aged HSPCs", "test": "ABC294640 treatment of aged mice to attenuate HSC aging", "format": "in vivo, mouse", "excerpt": "B6N.129S6-Sphk1tm1Rlp/J (Sphk1Δ/Δ) and B6N.129S6-Sphk2tm1Rlp/J (Sphk2Δ/Δ) mice were obtained from the Jackson Laboratory. To achieve tissue-specific deletion of Sphk2, the Sphk2^flox/flox mice were crossed with Vav-Cre transgenic mice. Sphk2^flox/flox mice was constructed by Cyagen Biosciences Inc. Briefly, linearized targeting vector was electroporated into embryonic stem (ES) cells and positive clones were identified by Southern blotting and injected into C57BL/6 blastocysts followed by chimera production to obtain germline transmission. The Frt-flanked Neo cassette was subsequently removed by mating with Flpe mice. 2-month-old mice or more than 20-month old for aging we used as indicated. 5 FU (Sigma-Aldrich) was injected once or once a week for survival curve as indicated in the tail vein at 150 μg/g body weight. Sphk2 inhibitor ABC294640 (Target Molecule Corp T6750) and PDK inhibitor Sodium dichloroacetate (DCA) (Selleck Chemicals S8615) were intraperitoneal injected at 25 mg/kg. […] Animals were randomly included in the experiments according to genotyping results as a mix of male and female. All animal experiments were performed according to protocols approved by the institutional animal care and use committee.\nFor phenotype analysis and hematopoietic purification, hematopoietic cells were harvested from bone marrow (femur and tibia). For cell surface phenotyping, a lineage cocktail (Lin, phycoerythrin (PE)-Cy5) was used, including anti-CD3 (145-2C11), anti-CD4 (RM4-5), anti-CD8 (53-6.7), anti-Mac-1 (M1/70), anti-Gr1 (RB6-8C5), anti-B220 (RA3-6B2), anti-IgM (11/41) and anti-TER119 (TER-119) (100 ng antibody cocktail per million bone marrow cells, Biolegend). Monoclonal antibodies to SCA1 (D7, Biolegend), c-KIT (2B8, Biolegend), FLK2 (A2F10, Biolegend), CD34 (RAM34, eBioscience), CD48 (HM48-1, Biolegend), CD41 (MWReg30, eBioscience), CD150 (TC15-12F12.2, BioLegend), CD16/32 (93, Biolegend), IL-7R (A7R34, Biolegend) (all used as 50 ng per million bone marrow cells) were also used where indicated.\nFor lineage analysis of peripheral blood, monoclonal antibodies to CD45.1 (A20, eBioscience), CD45.2 (104, Biolegend), CD3, B220, Mac-1 and Gr1 were used.\nFor cell cycle, DNA damage, the cells were fixed, permeabilized and stained by anti-Ki67 (16A8, Biolegend).\nThe cells were further incubated with 0.1 ug/uL DAPI (1306, Thermo Scientific) for 30 min at room temperature. For apoptosis and ROS analysis, the cells were stained by AnnexinV or DCFDA (D6883, Sigma-Aldrich).\nBone marrow cells were diluted to the indicated concentration in PBS and were seeded into methylcellulose medium M3434 (StemCell Technologies) for CFU-GM, CFU-GEMM, and BFU-E colony formation assays according to the manufacturer's", "key": {"[1]": {"settings": "18-month old mice, treatment for 10 weeks, vs vehicle"}}, "data": [{"molecule": "O=C(NCc1ccncc1)C12CC3CC(C1)CC(c1ccc(Cl)cc1)(C3)C2", "note": "[ABC294640, 3-(4-chloro-phenyl)-adamantane-1-carboxylic acid (pyridin-4-ylmethyl)-amide]", "values": [{"measurement": "CD150 HSC quiescence", "setting": "[1]", "result": "preserved"}, {"measurement": "HSPC pool", "setting": "[1]", "result": "significantly expanded"}, {"measurement": "increase of CD41- HSC population", "setting": "[1]", "result": 2.2, "unit": "fold"}, {"measurement": "increase of CD150low HSC population", "setting": "[1]", "result": 3.6, "unit": "fold"}, {"measurement": "reduction of DNA damage in CD150 HSPCs", "setting": "[1]", "result": 43.7, "unit": "%"}, {"measurement": "reduction of ROS level in CD150 HSPCs", "setting": "[1]", "result": 63, "unit": "%"}, {"measurement": "lymphopoiesis in peripheral blood", "setting": "aged mice, vs vehicle", "result": "markedly increased lymphopoiesis"}, {"measurement": "myeloid skewing in peripheral blood", "setting": "aged mice, vs vehicle", "result": "suppressed myeloid skewing"}, {"measurement": "colony-forming progenitor frequency in bone marrow cells", "setting": "aged mice, vs vehicle treated controls", "result": "significantly higher"}]}]}
